Consider one molecule from patent US20250275967A1, “FREEZE DRIED COMPOSITIONS” (Janssen Sciences Ireland Unlimited Company, priority 2022, published 2025).

The structures appear in SMILES notation.

The nature of the data set: rilpivirine particle size by wet dispersion laser diffraction. Format: physicochemical. Conditions: rilpivirine nanoparticles used for the aqueous compositions of Example 5. Here is the method: The compositions were freeze dried and reconstituted with water to provide 9 mL of the reconstituted aqueous composition at time t=0, freeze dried and reconstituted with water to provide 9 mL of the reconstituted aqueous composition after being stored under conditions of 25° C./60% RH and 40° C./75% RH for 1 month, and freeze dried and reconstituted with water to provide 9 mL of the reconstituted aqueous composition after being stored under conditions of 25° C./60% RH for 6 months. The rilpivirine particle sizes were measured in both instances following the method below.
The volume-based particle size distribution of the rilpivirine suspensions was determined by means of wet dispersion laser diffraction, using a Malvern Mastersizer 3000 laser diffraction (Malvern Instruments) and Hydro MV wet dispersion module.

As for `Cc1cc(/C=C/C#N)cc(C)c1Nc1ccnc(Nc2ccc(C#N)cc2)n1` [rilpivirine nanoparticles, 4-[[4-[[4-[(1E)-2-cyanoethenyl]-2,6-dimethylphenyl]amino]-2-pyrimidinyl]amino]-benzonitrile], the Dv10 result is “about 96.5 nm”, the Dv50 result was “about 224 nm” and the Dv90 entry was “about 509 nm”.
